Assay results from paper PMC5344956 (Cancer Chemotherapy and Pharmacology, 2017).

Columns and labels:
[1] = Plasma pharmacokinetics of TRA, ponatinib and metabolites after a single oral 45-mg [14C]ponatinib dose
Protocol: The subject release criterion was defined as follows: the combined urine and fecal radioactivity excretion for two consecutive days should fall below 1% of the dose administered.
Detailed procedures on sample collection, storage, and shipment are described in Online Resource 1. […] Fecal homogenates were prepared by adding water (four times the feces weight) and homogenizing.
TRA analysis was carried out at ABC Laboratories. The radioactivity in plasma (duplicate per time point) and urine samples (triplicate per time point) was quantitated by direct counting in a Beckman LS6000SC or LS6500 liquid scintillation counter (PerkinElmer Life and Analytical Sciences, Boston, MA, USA). Whole blood (duplicate per time point) and fecal homogenate (triplicate per time point) samples were oxidized, and the resultant ^14CO2 was trapped in Carbosorb (Calgon Carbon Corporation, Pittsburgh, PA, USA) in combination with Permafluor, followed by liquid scintillation counting to determine the radioactivity. Individual samples were counted for 5 min for whole blood and fecal matrices, and 10 min for plasma and urine matrices. Predose blood, plasma, urine, and feces samples served as respective control samples to determine and subtract the background radioactivity in the analysis.
M14 was quantitated using a different LC/MS/MS method (Online Resource 2). The pharmacokinetic analysis was carried out using WinNonlin® v6.4 (Pharsight Corp., Mountain View, CA, USA).
Aliquots of 30 µl of calibration standards, quality controls, and incurred plasma samples were transferred into a 96-well plate. Then 150 µl of ice-cold acetonitrile containing 50 ng/ml of AP30376 (d6-AP24600, internal standard) were added. The 96-well plate was vortexed for 10 min and then centrifuged at 4750 rpm for 20 min at 4°C. 100 µl aliquots of the supernatants were transferred into another 96-well plate and the samples were analyzed by liquid chromatography tandem mass spectrometry.

[2] = Metabolite profiling of plasma (HPLC-radiochromatography); assay type: in vivo, human; conditions: % of TRA
Protocol: For each subject, a 0–24 h pooled plasma sample was prepared according to the scheme outlined in the literature. In addition, several pooled plasma samples across all subjects were prepared at these time points: 5, 10, 12, […], and 48 h, and every 24 h thereafter until 240 h.
All pooled 0–24, 5, 10, 12, and 24 h plasma samples were processed as follows. […] The samples were vortexed for 30 min and centrifuged at 4500g at 4 °C for 6 min. The supernatants were transferred into new polypropylene tubes and kept on ice. The resulting plasma protein pellets were extracted twice to ensure good recovery and the extracts were combined. The combined extracts were loaded onto Ostro sample preparation plates (Waters Corporation, Milford, MA, USA), dried, eluted with 0.2 mL of cold acetonitrile, and all eluates were collected and evaporated under nitrogen (TurboVap LV; Caliper Life Sciences, Hopkinton, MA, USA). The dry residues were reconstituted in 0.1 mL of methanol, and a 0.005-mL aliquot was removed for determination of radioactivity. The remainder of the supernatants were transferred to high-performance liquid chromatography (HPLC) vials and stored at −80 °C until analysis.
Pooled post-24-h plasma samples were extracted using a slightly modified procedure. […] Appropriate volumes of formic acid were added to achieve a final concentration of 1%. Then, the samples were warmed to 37 °C and loaded to preconditioned Oasis HLB cartridges (Waters Corporation, Milford, MA, USA). These columns were then washed with water, dried under vacuum, and eluted with methanol. The eluates were collected and evaporated under nitrogen. The dry residues were reconstituted in 0.1 mL of methanol, and a 0.005-mL aliquot was removed for determination of radioactivity. The remainder of the supernatants were transferred to HPLC vials and stored at −80 °C until analysis.
(§1) A Finnigan Surveyor HPLC system (Thermo Fisher Scientific Inc., San Jose, CA, USA), consisting of an LC pump plus an autosampler and a UV–Vis plus detector, was used mostly for profiling (except the post-24-h plasma samples, which were analyzed using a Dionex HPLC system). A Phenomenex® Gemini® C18, 5-μm, 3.0 × 100-mm column (Phenomenex Inc., Torrance, CA, USA) was used along with a C-12 guard column (4 × 2 mm). LC conditions were as follows: solvent A was 10 mM ammonium bicarbonate in water (pH 10.0) and solvent B was 100% methanol and the flow rate was 0.8 mL/min. The following gradient was employed (B%): 0–5 min (20%), 32 min (42%), 33 min (60%), 55 min (70%), 56–60 min (95%), and 62–70 min (20%).
(§2) Reconstituted solvent extracts (0.050–0.10 mL) of plasma, urine, or feces were injected onto the HPLC column. The post-column eluate was split after UV detection into two streams (0.64 and 0.16 mL/min). The 0.64-mL stream was diverted to a fraction collector (Gilson FX 204; Gilson Medical Electronics, Middleton, WI, USA) to be collected in 96-well plates at 0.16 min/well (ScintiPlates; PerkinElmer Life Sciences, Shelton, CT, USA), and the 0.16-mL stream was directed to the mass spectrometer. The solvent in the 96-well plates was removed at 40 °C using a Genevac evaporator (Genevac, Inc., Stone Ridge, NY, USA).
(§3) The radioactivity counts per minute (CPM) in each well was determined using a MicroBeta scintillation counter (PerkinElmer Life and Analytical Sciences). The resulting CPM vs. time data were processed using Excel (Microsoft Corporation, Seattle, WA, USA). The CPM in each well was background-subtracted (using the average CPM values of the blank region of the HPLC run). Radiochromatographic profiles were obtained by plotting the resulting net CPM values against time after injection. Radioactive peaks in the chromatographic profiles were identified, and the radioactivity in each peak was summed and reported as a percentage of TRA in the HPLC run.

[3] = Metabolite profiling of feces (HPLC-radiochromatography); assay type: in vivo, human; conditions: 0–144 h pool; for % Distribution in matrix: % of fecal TRA
Protocol: One-gram samples of the fecal homogenates were transferred to 50-mL polypropylene tubes, extracted with 4 mL of methanol, and centrifuged (4500g). The resulting residues were extracted three more times (once with 2 mL of methanol and twice with 1 mL of methanol containing 1% formic acid) and centrifuged. All supernatants were combined and evaporated under nitrogen, and the residue was reconstituted with 0.5 mL of methanol, vortexed, sonicated, and centrifuged. A 0.010-mL aliquot of the supernatant was removed for determination of radioactivity, and the remainder of the supernatant was transferred to an HPLC vial and stored at −80 °C.
as §1, §2, §3

human liver microsomes = test: In vitro metabolism with human liver microsomes and CYP-specific chemical inhibitors (data not shown); assay type: in vitro ADME; conditions: CYP-specific chemical inhibitors
[4] = co-administration of ketoconazole (potent CYP3A4 inhibitor) ref 11; cited from earlier work
[5] = male, human, in vivo, po, 45 mg

- plasma level at 144 h postdose ([1]; human plasma, 144 h postdose): at or below detectable limits
- AUC(0-t) [1, 5]: 3.48 µM·h
- Tmax [1, 5]: 5 h
- half-life [1, 5]: 27.4 h
- concentration at 144 h ([1]; male, human, plasma, oral, 45 mg): < 2.4 nM
- % Distribution in plasma ([2]; 0–24 h pooled plasma): 25.5%
- % Distribution in plasma ([2]; 5 h pooled plasma): 42.4%
- % Distribution in plasma ([2]; 10 h pooled plasma): 36.3%
- % Distribution in plasma ([2]; 12 h pooled plasma): 51.5%
- % Distribution in plasma ([2]; 36 h pooled plasma): 4.2%
- % Distribution in plasma ([2]; 48 h pooled plasma): 9.4%
- % Distribution in plasma ([2]; 72 h pooled plasma): 12.8%
- % Distribution in plasma ([2]; 96 h pooled plasma): 13.2%
- % of total radioactive dose [3]: 20.5/2.8%
- % Distribution in matrix [3]: 23.7/3.2%
- % Distribution in matrix ([3]; listed as ponatinib): 23.7%
- % of total radioactive dose ([3]; listed as ponatinib): 20.5%
SMILES: Cc1ccc(C(=O)Nc2ccc(CN3CCN(C)CC3)c(C(F)(F)F)c2)cc1C#Cc1cnc2cccnn12.Cl [Ponatinib, 3-(imidazo[1,2-b]pyridazin-3-ylethynyl)-4-methyl-N-(4-((4-methylpiperazin-1-yl)methyl)-3-(trifluoromethyl)phenyl)benzamide hydrochloride]
- CYP enzymes that metabolize the compound (human liver microsomes): metabolized mostly by CYP3A4 and to a lesser extent by CYP2D6 and CYP2C8
- increase of AUC0–∞ on co-administration of ketoconazole [4]: 47%
- increase of C max on co-administration of ketoconazole [4]: 78%
